The NIST ThermoML archive (doi:10.1016/j.jct.2018.11.004)
Where “and” joins values, the source holds several entries; their conditions need not be identical. Equal values may be shown once.

Legend:
[1] = Molar enthalpy of transition or fusion
[2] = for molar entropy: 101.33 kPa, Small (less than 1 g) adiabatic calorimetry

CC(C)[C@@H]1CC[C@@H](C)C[C@H]1O [L-menthol]
Conditions | Molar enthalpy of transition or fusion, [1] [kcal/mol] | Triple point temperature, [2] [K]
Crystal 1, Adiabatic calorimetry | 3.22 | 315.6
Crystal 1, DSC | 3.18 | 315.4

Conditions | Molar enthalpy of transition or fusion [kcal/mol] | Triple point temperature [K] | molar entropy [J/K/mol] | vapor or sublimation pressure
[1], Metastable crystal, DSC | 2.72 | – | – | –
[2], 5 K, Crystal 1 | – | – | 0.2864 | –
[2], 10 K, Crystal 1 | – | – | 2.099 | –
[2], 15 K, Crystal 1 | – | – | 5.656 | –
[2], 20 K, Crystal 1 | – | – | 10.35 | –
[2], 25 K, Crystal 1 | – | – | 15.64 | –
[2], 30 K, Crystal 1 | – | – | 21.2 | –
[2], 35 K, Crystal 1 | – | – | 26.81 | –
[2], 40 K, Crystal 1 | – | – | 32.36 | –
[2], 45 K, Crystal 1 | – | – | 37.82 | –
[2], 50 K, Crystal 1 | – | – | 43.18 | –
[2], 55 K, Crystal 1 | – | – | 48.45 | –
[2], 60 K, Crystal 1 | – | – | 53.64 | –
[2], 65 K, Crystal 1 | – | – | 58.76 | –
[2], 70 K, Crystal 1 | – | – | 63.82 | –
[2], 75 K, Crystal 1 | – | – | 68.83 | –
[2], 80 K, Crystal 1 | – | – | 73.79 | –
[2], 85 K, Crystal 1 | – | – | 78.72 | –
[2], 90 K, Crystal 1 | – | – | 83.6 | –
[2], 95 K, Crystal 1 | – | – | 88.45 | –
[2], 100 K, Crystal 1 | – | – | 93.27 | –
[2], 105 K, Crystal 1 | – | – | 98.05 | –
[2], 110 K, Crystal 1 | – | – | 102.8 | –
[2], 115 K, Crystal 1 | – | – | 107.5 | –
[2], 120 K, Crystal 1 | – | – | 112.2 | –
[2], 125 K, Crystal 1 | – | – | 116.8 | –
[2], 130 K, Crystal 1 | – | – | 121.4 | –
[2], 135 K, Crystal 1 | – | – | 126 | –
[2], 140 K, Crystal 1 | – | – | 130.6 | –
[2], 145 K, Crystal 1 | – | – | 135.1 | –
[2], 150 K, Crystal 1 | – | – | 139.5 | –
[2], 155 K, Crystal 1 | – | – | 144 | –
[2], 160 K, Crystal 1 | – | – | 148.4 | –
[2], 165 K, Crystal 1 | – | – | 152.8 | –
[2], 170 K, Crystal 1 | – | – | 157.2 | –
[2], 175 K, Crystal 1 | – | – | 161.5 | –
[2], 180 K, Crystal 1 | – | – | 165.8 | –
[2], 185 K, Crystal 1 | – | – | 170.1 | –
[2], 190 K, Crystal 1 | – | – | 174.4 | –
[2], 195 K, Crystal 1 | – | – | 178.7 | –
[2], 200 K, Crystal 1 | – | – | 182.9 | –
[2], 205 K, Crystal 1 | – | – | 187.1 | –
[2], 210 K, Crystal 1 | – | – | 191.4 | –
[2], 215 K, Crystal 1 | – | – | 195.5 | –
[2], 220 K, Crystal 1 | – | – | 199.7 | –
[2], 225 K, Crystal 1 | – | – | 203.9 | –
[2], 230 K, Crystal 1 | – | – | 208.1 | –
[2], 235 K, Crystal 1 | – | – | 212.2 | –
[2], 240 K, Crystal 1 | – | – | 216.3 | –
[2], 245 K, Crystal 1 | – | – | 220.5 | –
[2], 250 K, Crystal 1 | – | – | 224.6 | –
[2], 255 K, Crystal 1 | – | – | 228.7 | –
[2], 260 K, Crystal 1 | – | – | 232.9 | –
[2], 265 K, Crystal 1 | – | – | 237 | –
[2], 270 K, Crystal 1 | – | – | 241.2 | –
[2], 273.64 K, Crystal 1, Closed cell (Static) method | – | – | – | 0.000244 kPa
[2], 273.65 K, Crystal 1, Closed cell (Static) method | – | – | – | 0.000244 kPa and 0.000242 kPa
[2], 275 K, Crystal 1 | – | – | 245.3 | –
[2], 277.38 K, Crystal 1, Closed cell (Static) method | – | – | – | 0.000399 kPa
[2], 277.41 K, Crystal 1, Closed cell (Static) method | – | – | – | 0.000401 kPa
[2], 277.5 K, Crystal 1, Closed cell (Static) method | – | – | – | 0.000403 kPa
[2], 278.15 K, Crystal 1, Closed cell (Static) method | – | – | – | 0.000441 kPa and 0.00044 kPa
[2], 278.16 K, Crystal 1, Closed cell (Static) method | – | – | – | 0.00044 kPa
[2], 280 K, Crystal 1 | – | – | 249.5 | –
[2], 282.34 K, Crystal 1, Closed cell (Static) method | – | – | – | 0.000758 kPa and 0.000756 kPa and 0.000759 kPa
[2], 283.15 K, Crystal 1, Closed cell (Static) method | – | – | – | 0.000839 kPa and 0.00084 kPa
[2], 285 K, Crystal 1 | – | – | 253.6 | –
[2], 286.97 K, Crystal 1, Closed cell (Static) method | – | – | – | 0.001352 kPa and 0.001354 kPa
[2], 286.98 K, Crystal 1, Closed cell (Static) method | – | – | – | 0.001355 kPa
[2], 288.15 K, Crystal 1, Closed cell (Static) method | – | – | – | 0.001557 kPa and 0.001559 kPa
[2], 288.16 K, Crystal 1, Closed cell (Static) method | – | – | – | 0.001558 kPa
[2], 290 K, Crystal 1 | – | – | 257.8 | –
[2], 291.56 K, Crystal 1, Closed cell (Static) method | – | – | – | 0.002353 kPa
[2], 291.57 K, Crystal 1, Closed cell (Static) method | – | – | – | 0.002354 kPa
[2], 291.6 K, Crystal 1, Closed cell (Static) method | – | – | – | 0.002364 kPa
[2], 293.14 K, Crystal 1, Closed cell (Static) method | – | – | – | 0.002829 kPa and 0.002828 kPa and 0.002831 kPa
[2], 295 K, Crystal 1 | – | – | 261.9 | –
[2], 296.23 K, Crystal 1, Closed cell (Static) method | – | – | – | 0.004057 kPa and 0.004052 kPa
[2], 296.25 K, Crystal 1, Closed cell (Static) method | – | – | – | 0.004063 kPa
[2], 298.15 K, Crystal 1 | – | – | 264.6 | –
[2], 298.15 K, Crystal 1, Closed cell (Static) method | – | – | – | 0.005047 kPa and 0.005039 kPa and 0.005033 kPa
[2], 300 K, Crystal 1 | – | – | 266.1 | –
[2], 300.84 K, Crystal 1, Closed cell (Static) method | – | – | – | 0.006809 kPa
[2], 300.85 K, Crystal 1, Closed cell (Static) method | – | – | – | 0.006831 kPa
[2], 300.86 K, Crystal 1, Closed cell (Static) method | – | – | – | 0.006832 kPa
[2], 303 K, Metastable liquid | – | – | – | 0.01038 kPa and 0.01037 kPa
[2], 303.14 K, Crystal 1, Closed cell (Static) method | – | – | – | 0.008771 kPa and 0.008757 kPa and 0.008761 kPa
[2], 305 K, Crystal 1 | – | – | 270.4 | –
[2], 305.45 K, Crystal 1, Closed cell (Static) method | – | – | – | 0.01128 kPa
[2], 308.15 K, Crystal 1, Closed cell (Static) method | – | – | – | 0.01501 kPa and 0.015 kPa
[2], 308.15 K, Metastable liquid | – | – | – | 0.01672 kPa and 0.0167 kPa
[2], 308.18 K, Metastable liquid | – | – | – | 0.01676 kPa
[2], 308.19 K, Metastable liquid | – | – | – | 0.01678 kPa
[2], 308.2 K, Metastable liquid | – | – | – | 0.01678 kPa
[2], 310 K, Crystal 1 | – | – | 274.6 | –
[2], 310.04 K, Crystal 1, Closed cell (Static) method | – | – | – | 0.01833 kPa
[2], 310.07 K, Crystal 1, Closed cell (Static) method | – | – | – | 0.0184 kPa and 0.01842 kPa
[2], 313.38 K, Metastable liquid | – | – | – | 0.02657 kPa and 0.02658 kPa and 0.02656 kPa
[2], 314.67 K, Crystal 1, Closed cell (Static) method | – | – | – | 0.02949 kPa and 0.02946 kPa
[2], 315 K, Crystal 1 | – | – | 278.9 | –
[2], 315.6 K, Crystal 1 | – | – | 279.4 | –
[2], 315.6 K, Liquid | – | – | 322.1 | –
[2], 318.43 K, Liquid | – | – | – | 0.0408 kPa
[2], 318.46 K, Liquid | – | – | – | 0.04088 kPa
[2], 318.47 K, Liquid | – | – | – | 0.04094 kPa
[2], 320 K, Liquid | – | – | 327.3 | –
[2], 323.48 K, Liquid | – | – | – | 0.06146 kPa
[2], 323.5 K, Liquid | – | – | – | 0.06158 kPa
[2], 323.51 K, Liquid | – | – | – | 0.06164 kPa
[2], 325 K, Liquid | – | – | 333.3 | –
[2], 328.56 K, Liquid | – | – | – | 0.09137 kPa and 0.09138 kPa
[2], 330 K, Liquid | – | – | 339.4 | –
[2], 332.75 K, Liquid | – | – | – | 0.1252 kPa
[2], 335 K, Liquid | – | – | 345.4 | –
[2], 337.81 K, Liquid | – | – | – | 0.1804 kPa
[2], 337.82 K, Liquid | – | – | – | 0.1805 kPa
[2], 340 K, Liquid | – | – | 351.5 | –
[2], 342.89 K, Liquid | – | – | – | 0.2562 kPa and 0.2563 kPa
[2], 345 K, Liquid | – | – | 357.5 | –
[2], 347.88 K, Liquid | – | – | – | 0.3573 kPa
[2], 350 K, Liquid | – | – | 363.5 | –
[2], 352.88 K, Liquid | – | – | – | 0.4914 kPa
[2], 352.89 K, Liquid | – | – | – | 0.4914 kPa
[2], 355 K, Liquid | – | – | 369.6 | –
[2], 357.86 K, Liquid | – | – | – | 0.6662 kPa
[2], 357.87 K, Liquid | – | – | – | 0.6664 kPa
[2], 360 K, Liquid | – | – | 375.6 | –
[2], 362.82 K, Liquid | – | – | – | 0.8914 kPa
[2], 362.83 K, Liquid | – | – | – | 0.8915 kPa
[2], 365 K, Liquid | – | – | 381.5 | –
[2], 370 K, Liquid | – | – | 387.5 | –
[2], Metastable crystal, DSC | – | 310 | – | –
